Assay results reported in ChEMBL document CHEMBL1201861, “Genomics of Drug Sensitity in Cancer screening data, Wellcome Trust Sanger Institute”.

Test system: COLO-800;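 further: growth inhibition of COLO-800 cells, read out with a cell viability assay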
Test: cells
Format: functional, cell-based, Homo sapiens
Settings: Homo sapiens, COLO-800
Description: SANGER: Inhibition of human COLO-800 cell growth in a cell viability assay.

Structure (SMILES)	IC50 [µM]
Cc1cn(-c2cc(NC(=O)c3ccc(C)c(Nc4nccc(-c5cccnc5)n4)c3)cc(C(F)(F)F)c2)cn1 [NILOTINIB]	> 2

Test system: COLO-829
Test: cells
Format: functional, cell-based, Homo sapiens
Settings: Homo sapiens, COLO-829
Description: SANGER: Inhibition of human COLO-829 cell growth in a cell viability assay.

Structure (SMILES)	IC50 [µM]
Cc1cn(-c2cc(NC(=O)c3ccc(C)c(Nc4nccc(-c5cccnc5)n4)c3)cc(C(F)(F)F)c2)cn1 [NILOTINIB]	> 2

Test system: CP66-MEL;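 further: growth inhibition of CP66-MEL cells determined in a cell viability assay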
Test: cells
Format: functional, cell-based, Homo sapiens
Settings: Homo sapiens, CP66-MEL
Description: SANGER: Inhibition of human CP66-MEL cell growth in a cell viability assay.

Structure (SMILES)	IC50 [µM]
Cc1cn(-c2cc(NC(=O)c3ccc(C)c(Nc4nccc(-c5cccnc5)n4)c3)cc(C(F)(F)F)c2)cn1 [NILOTINIB]	> 2

Test system: CTV-1;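 further: growth inhibition of the cell line, read out with a cell viability assay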
Test: cells
Format: functional, cell-based, Homo sapiens
Settings: Homo sapiens, CTV-1
Description: SANGER: Inhibition of human CTV-1 cell growth in a cell viability assay.

Structure (SMILES)	IC50 [µM]
Cc1cn(-c2cc(NC(=O)c3ccc(C)c(Nc4nccc(-c5cccnc5)n4)c3)cc(C(F)(F)F)c2)cn1 [NILOTINIB]	> 2

Test system: DSH1;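 further: growth inhibition of human DSH1 cells, measured with a cell viability readout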
Test: cells
Format: functional, cell-based, Homo sapiens
Settings: Homo sapiens, DSH1
Description: SANGER: Inhibition of human DSH1 cell growth in a cell viability assay.

Structure (SMILES)	IC50 [µM]
Cc1cn(-c2cc(NC(=O)c3ccc(C)c(Nc4nccc(-c5cccnc5)n4)c3)cc(C(F)(F)F)c2)cn1 [NILOTINIB]	> 2

Test system: EC-GI-10
Test: cells
Format: functional, cell-based, Homo sapiens
Settings: Homo sapiens, EC-GI-10
Description: SANGER: Inhibition of human EC-GI-10 cell growth in a cell viability assay.

Structure (SMILES)	IC50 [µM]
Cc1cn(-c2cc(NC(=O)c3ccc(C)c(Nc4nccc(-c5cccnc5)n4)c3)cc(C(F)(F)F)c2)cn1 [NILOTINIB]	> 2

Test system: ES1;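 further: growth inhibition of ES1 cells, read out with a cell viability assay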
Test: cells
Format: functional, cell-based, Homo sapiens
Settings: Homo sapiens, ES1
Description: SANGER: Inhibition of human ES1 cell growth in a cell viability assay.

Structure (SMILES)	IC50 [µM]
Cc1cn(-c2cc(NC(=O)c3ccc(C)c(Nc4nccc(-c5cccnc5)n4)c3)cc(C(F)(F)F)c2)cn1 [NILOTINIB]	> 2

Test system: ES7;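 further: growth inhibition of cultured human ES7 cells, read out as cell viability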
Test: cells
Format: functional, cell-based, Homo sapiens
Settings: Homo sapiens, ES7
Description: SANGER: Inhibition of human ES7 cell growth in a cell viability assay.

Structure (SMILES)	IC50 [µM]
Cc1cn(-c2cc(NC(=O)c3ccc(C)c(Nc4nccc(-c5cccnc5)n4)c3)cc(C(F)(F)F)c2)cn1 [NILOTINIB]	> 2

Test system: EW-18;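 further: growth inhibition of EW-18 cells, read out by a cell viability assay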
Test: cells
Format: functional, cell-based, Homo sapiens
Settings: Homo sapiens, EW-18
Description: SANGER: Inhibition of human EW-18 cell growth in a cell viability assay.

Structure (SMILES)	IC50 [µM]
Cc1cn(-c2cc(NC(=O)c3ccc(C)c(Nc4nccc(-c5cccnc5)n4)c3)cc(C(F)(F)F)c2)cn1 [NILOTINIB]	> 2

Test system: EOL1;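 further: growth inhibition of EoL-1 cells, read out by a cell viability assay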
Test: cells
Format: functional, cell-based, Homo sapiens
Settings: Homo sapiens, EOL1
Description: SANGER: Inhibition of human EoL-1-cell cell growth in a cell viability assay.

Structure (SMILES)	IC50 [µM]
Cc1cn(-c2cc(NC(=O)c3ccc(C)c(Nc4nccc(-c5cccnc5)n4)c3)cc(C(F)(F)F)c2)cn1 [NILOTINIB]	< 0.00781

Test system: GB-1;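 further: growth of GB-1 cells judged by a viability assay, IC50 marks the concentration inhibiting growth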
Test: cells
Format: functional, cell-based, Homo sapiens
Settings: Homo sapiens, GB-1
Description: SANGER: Inhibition of human GB-1 cell growth in a cell viability assay.

Structure (SMILES)	IC50 [µM]
Cc1cn(-c2cc(NC(=O)c3ccc(C)c(Nc4nccc(-c5cccnc5)n4)c3)cc(C(F)(F)F)c2)cn1 [NILOTINIB]	> 2

Test system: GT3TKB;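 further: growth inhibition of the cell line, read out with a cell viability assay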
Test: cells
Format: functional, cell-based, Homo sapiens
Settings: Homo sapiens, GT3TKB
Description: SANGER: Inhibition of human GT3TKB cell growth in a cell viability assay.

Structure (SMILES)	IC50 [µM]
Cc1cn(-c2cc(NC(=O)c3ccc(C)c(Nc4nccc(-c5cccnc5)n4)c3)cc(C(F)(F)F)c2)cn1 [NILOTINIB]	> 2

Test system: HDLM-2;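 further: cell viability assay measuring suppression of HDLM-2 proliferation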
Test: cells
Format: functional, cell-based, Homo sapiens
Settings: Homo sapiens, HDLM-2
Description: SANGER: Inhibition of human HDLM-2 cell growth in a cell viability assay.

Structure (SMILES)	IC50 [µM]
Cc1cn(-c2cc(NC(=O)c3ccc(C)c(Nc4nccc(-c5cccnc5)n4)c3)cc(C(F)(F)F)c2)cn1 [NILOTINIB]	> 2

Test system: KLE;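 further: growth inhibition of human KLE cells, read out with a cell viability assay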
Test: cells
Format: functional, cell-based, Homo sapiens
Settings: Homo sapiens, KLE
Description: SANGER: Inhibition of human KLE cell growth in a cell viability assay.

Structure (SMILES)	IC50 [µM]
Cc1cn(-c2cc(NC(=O)c3ccc(C)c(Nc4nccc(-c5cccnc5)n4)c3)cc(C(F)(F)F)c2)cn1 [NILOTINIB]	> 2

Test system: KMOE-2;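 further: growth inhibition of human KMOE-2 cells, read out with a cell viability assay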
Test: cells
Format: functional, cell-based, Homo sapiens
Settings: Homo sapiens, KMOE-2
Description: SANGER: Inhibition of human KMOE-2 cell growth in a cell viability assay.

Structure (SMILES)	IC50 [µM]
Cc1cn(-c2cc(NC(=O)c3ccc(C)c(Nc4nccc(-c5cccnc5)n4)c3)cc(C(F)(F)F)c2)cn1 [NILOTINIB]	> 2

Test system: KNS-81-FD;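 further: growth inhibition of KNS-81-FD cells, read out with a cell viability assay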
Test: cells
Format: functional, cell-based, Homo sapiens
Settings: Homo sapiens, KNS-81-FD
Description: SANGER: Inhibition of human KNS-81-FD cell growth in a cell viability assay.

Structure (SMILES)	IC50 [µM]
Cc1cn(-c2cc(NC(=O)c3ccc(C)c(Nc4nccc(-c5cccnc5)n4)c3)cc(C(F)(F)F)c2)cn1 [NILOTINIB]	> 2

Test system: LAN-6;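 further: growth inhibition of LAN-6 cells, determined with a cell viability assay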
Test: cells
Format: functional, cell-based, Homo sapiens
Settings: Homo sapiens, LAN-6
Description: SANGER: Inhibition of human LAN-6 cell growth in a cell viability assay.

Structure (SMILES)	IC50 [µM]
Cc1cn(-c2cc(NC(=O)c3ccc(C)c(Nc4nccc(-c5cccnc5)n4)c3)cc(C(F)(F)F)c2)cn1 [NILOTINIB]	> 2

Test system: LB1047-RCC;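 further: inhibition of cell growth, determined with a cell viability assay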
Test: cells
Format: functional, cell-based, Homo sapiens
Settings: Homo sapiens, LB1047-RCC
Description: SANGER: Inhibition of human LB1047-RCC cell growth in a cell viability assay.

Structure (SMILES)	IC50 [µM]
Cc1cn(-c2cc(NC(=O)c3ccc(C)c(Nc4nccc(-c5cccnc5)n4)c3)cc(C(F)(F)F)c2)cn1 [NILOTINIB]	> 2

Test system: LS-123
Test: cells
Format: functional, cell-based, Homo sapiens
Settings: Homo sapiens, LS-123
Description: SANGER: Inhibition of human LS-123 cell growth in a cell viability assay.

Structure (SMILES)	IC50 [µM]
Cc1cn(-c2cc(NC(=O)c3ccc(C)c(Nc4nccc(-c5cccnc5)n4)c3)cc(C(F)(F)F)c2)cn1 [NILOTINIB]	> 2

Test system: LXF-289 cell line
Test: cells
Format: functional, cell-based, Homo sapiens
Settings: Homo sapiens, LXF-289
Description: SANGER: Inhibition of human LXF-289 cell growth in a cell viability assay.

Structure (SMILES)	IC50 [µM]
Cc1cn(-c2cc(NC(=O)c3ccc(C)c(Nc4nccc(-c5cccnc5)n4)c3)cc(C(F)(F)F)c2)cn1 [NILOTINIB]	> 2

Test system: MHH-NB-11;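 further: growth inhibition of human MHH-NB-11 cells, read out by a cell viability assay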
Test: cells
Format: functional, cell-based, Homo sapiens
Settings: Homo sapiens, MHH-NB-11
Description: SANGER: Inhibition of human MHH-NB-11 cell growth in a cell viability assay.

Structure (SMILES)	IC50 [µM]
Cc1cn(-c2cc(NC(=O)c3ccc(C)c(Nc4nccc(-c5cccnc5)n4)c3)cc(C(F)(F)F)c2)cn1 [NILOTINIB]	> 2

Test system: MHH-PREB-1;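 further: cell viability assay measuring inhibition of proliferation of human MHH-PREB-1 cells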
Test: cells
Format: functional, cell-based, Homo sapiens
Settings: Homo sapiens, MHH-PREB-1
Description: SANGER: Inhibition of human MHH-PREB-1 cell growth in a cell viability assay.

Structure (SMILES)	IC50 [µM]
Cc1cn(-c2cc(NC(=O)c3ccc(C)c(Nc4nccc(-c5cccnc5)n4)c3)cc(C(F)(F)F)c2)cn1 [NILOTINIB]	> 2

Test system: ML-2;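 further: growth inhibition of ML-2 cells, measured with a cell viability readout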
Test: cells
Format: functional, cell-based, Homo sapiens
Settings: Homo sapiens, ML-2
Description: SANGER: Inhibition of human ML-2 cell growth in a cell viability assay.

Structure (SMILES)	IC50 [µM]
Cc1cn(-c2cc(NC(=O)c3ccc(C)c(Nc4nccc(-c5cccnc5)n4)c3)cc(C(F)(F)F)c2)cn1 [NILOTINIB]	> 2

Test system: NB69;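 further: growth inhibition of NB69 cells, determined by a cell viability assay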
Test: cells
Format: functional, cell-based, Homo sapiens
Settings: Homo sapiens, NB69
Description: SANGER: Inhibition of human NB69 cell growth in a cell viability assay.

Structure (SMILES)	IC50 [µM]
Cc1cn(-c2cc(NC(=O)c3ccc(C)c(Nc4nccc(-c5cccnc5)n4)c3)cc(C(F)(F)F)c2)cn1 [NILOTINIB]	> 2
